In data set [1] the test system is Candida albicans ATCC 10231. The experiment in a line: MIC, CLSI-M27A3 broth microdilution in RPMI 1640. It counts as cell-based. The method, then: (§1) Susceptibility tests were performed in low ionic strength broth medium (LCM: 0.5% glucose, 0.25% yeast extract, 0.0125% peptone (w/v)) and in RPMI 1640 medium (Sigma-Aldrich, St Louis, MO, USA) supplemented with 0.03% (w/v) L-glutamine and buffered to pH 7.0 with 0.165 M 4-morpholinopropanesulfonic acid (Sigma-Aldrich, St Louis, MO, USA).
(§2) The CLSI-M27A3 broth microdilution method (Clinical and Laboratory Standards Institute, [2008]) was applied to determinate the minimal inhibitory concentrations (MIC) of FLC (Sigma-Aldrich, St Louis, MO, USA) and rNFAP2 against the Candida isolates (10^3 cells ml^−1) under clinically approved test conditions. For this experiment, the rNFAP2 stock was prepared in bidistilled water, and FLC in dimethyl sulfoxide (DMSO). The investigated concentration range was 64–0.0625 μg ml^−1 for FCL and 100–0.39 μg ml^−1 for rNFAP2.
(§3) LCM plates were incubated at 30°C, while RPMI 1640 plates at 35°C for 48 h without shaking, then the absorbance (OD620) was measured with a microtiter plate reader (SPECTROstar Nano, BMG Labtech, Ortenberg, Germany) after resuspension of the cultures with pipette. The absorbance of the untreated control cultures was referred to 100% growth in each case.
(§4) All susceptibility tests were repeated at least two times in three replicates.
On the technique in general: Broth dilution looks for growth in wells or tubes with falling amounts of substance.

Data set [2] deals with Candida krusei CBS 573. The experiment in a line: MIC, CLSI-M27A3 broth microdilution in RPMI 1640. It counts as cell-based. Conditions: Pichia kudriavzevii, CBS573, 48 h, pH 7; read-out: MIC of the drug alone (a). The method, then:
as §1, §2, §3, §4

The subject of data set [3] is Candida parapsilosis CBS 604. In words: MIC, CLSI-M27A3 broth microdilution in RPMI 1640. The format is cell-based. The method, then: as §1, §2, §3, §4
Data set [4] has as its system Candida albicans ATCC 10231. In words: Checkerboard microdilution, rNFAP2 with FLC, RPMI 1640. It counts as cell-based. As to conditions: rNFAP2 combined with FLC; RPMI 1640, 10^3 cells ml^−1, 48 h, 35°C. The method, then: (§5) Antifungal synergism between rNFAP2 and FLC were investigated using the checkerboard microdilution method (Eliopoulos and Moellering, [1996]) in RPMI 1640 medium applying the drug stock preparation method and cultivation conditions described in CLSI-M27A3 document (Clinical and Laboratory Standards Institute, [2008]). […] The fractional inhibitory concentration index (FICI) as a measure of synergism and antagonism was calculated (Johnson et al., [2004]). Synergism was defined as FICI≤0.5, indifference as 0.5 < FICI ≤ 4 and antagonism was defined when FICI > 4 (Odds, [2003]).
as §3, §4

Data set [5] deals with Candida parapsilosis CBS 604. The description is as above. It counts as cell-based. Conditions: rNFAP2 combined with FLC; RPMI 1640, 10^3 cells ml^−1, 48 h, 35°C. The method, then:
as §5, §3, §4

For data set [6], the system named is Candida glabrata CBS 138. In words: MIC, broth microdilution in LCM. The format is cell-based. Conditions: 10^5 cells ml^−1, 48 h, 30°C, MIC = growth ≤ 5% (OD620). The method, then: as §1
(§6) Antifungal susceptibility tests were performed with nNFAP2, rNFAP2, and sNFAP2 and its peptide fragments in LCM medium against yeast isolates (10^5 cells ml^−1) according to the broth microdilution method described by Tóth et al. ([2016]). Final drug concentration ranged from 25 to 0.098 μg ml^−1 for rNFAP2 and sNFAP2, and from 100 to 6.25 μg ml^−1 for the synthetic peptide fragments. The rNFAP2 was tested against nine yeast isolates, while the sNFAP2 and the synthetic peptide fragments against C. albicans ATCC 10231, C. krusei CBS 573, C. parapsilosis CBS 604, and S. cerevisiae SZMC 0644.
as §3, §4

The test system of data set [7] is Candida guilliermondii CBS 566. The experiment in a line: MIC, broth microdilution in LCM. The format is cell-based. Conditions: 10^5 cells ml^−1, 48 h, 30°C, MIC = growth ≤ 5% (OD620). The method, then: as §1, §6, §3, §4
The test system of data set [8] is Candida lusitaniae CBS 6936. The experiment in a line: MIC, broth microdilution in LCM. It counts as cell-based. As to conditions: 10^5 cells ml^−1, 48 h, 30°C, MIC = growth ≤ 5% (OD620). The method, then: as §1, §6, §3, §4
For data set [9], the system named is Candida tropicalis CBS 94. In words: MIC, broth microdilution in LCM. As to conditions: 10^5 cells ml^−1, 48 h, 30°C, MIC = growth ≤ 5% (OD620). The format is cell-based. The method, then: as §1, §6, §3, §4
Data set [10] concerns Schizosaccharomyces pombe SZMC 0142. The experiment in a line: MIC, broth microdilution in LCM. The format is cell-based. Conditions: 10^5 cells ml^−1, 48 h, 30°C, MIC = growth ≤ 5% (OD620). The method, then: as §1, §6, §3, §4
Data set [11] concerns Candida albicans ATCC 10231. As to conditions: LCM, 10^5 cells ml^−1, 48 h, 30°C; MIC = growth ≤ 5% (OD620). The method, then:
as §1, §6, §3, §4

Data set [12] deals with Candida krusei CBS 573. As to conditions: LCM, 10^5 cells ml^−1, 48 h, 30°C; MIC = growth ≤ 5% (OD620). The method, then:
as §1, §6, §3, §4

In data set [13] the test system is Candida parapsilosis CBS 604. Conditions: LCM, 10^5 cells ml^−1, 48 h, 30°C; MIC = growth ≤ 5% (OD620). The method, then: as §1, §6, §3, §4
The test system of data set [14] is Saccharomyces cerevisiae SZMC 0644. As to conditions: LCM, 10^5 cells ml^−1, 48 h, 30°C; MIC = growth ≤ 5% (OD620). The method, then: as §1, §6, §3, §4
Data set [15] concerns Candida glabrata CBS 138. In words: MIC, CLSI-M27A3 broth microdilution in RPMI 1640. As to conditions: RPMI 1640 pH 7.0, 10^3 cells ml^−1, 48 h, 35°C; MIC = growth ≤ 5%. It counts as cell-based. The method, then:
as §1, §2, §3, §4

The test system of data set [16] is Candida guilliermondii CBS 566. The experiment in a line: MIC, CLSI-M27A3 broth microdilution in RPMI 1640. The format is cell-based. Conditions: RPMI 1640 pH 7.0, 10^3 cells ml^−1, 48 h, 35°C; MIC = growth ≤ 5%. The method, then:
as §1, §2, §3, §4

Data set [17] has as its system Candida lusitaniae CBS 6936. In words: MIC, CLSI-M27A3 broth microdilution in RPMI 1640. It counts as cell-based. Conditions: RPMI 1640 pH 7.0, 10^3 cells ml^−1, 48 h, 35°C; MIC = growth ≤ 5%. The method, then:
as §1, §2, §3, §4

Data set [18] has as its system Candida tropicalis CBS 94. The experiment in a line: MIC, CLSI-M27A3 broth microdilution in RPMI 1640. The format is cell-based. Conditions: RPMI 1640 pH 7.0, 10^3 cells ml^−1, 48 h, 35°C; MIC = growth ≤ 5%. The method, then: as §1, §2, §3, §4
In data set [19] the test system is Candida krusei CBS 573. In words: Checkerboard microdilution, rNFAP2 with FLC, RPMI 1640. The format is cell-based. As to conditions: rNFAP2 combined with FLC; RPMI 1640, 10^3 cells ml^−1, 48 h, 35°C. The method, then: as §5, §3, §4
Data set [20] can be described thus: Thermal unfolding followed by ECD spectroscopy. The format is physicochemical. The method, then: ECD spectroscopic measurements were performed using a Jasco-J815 spectropolarimeter (JASCO Corporation, Tokyo, Japan), in the far-UV range (185–260 nm). Protein samples were dissolved in pure H2O in approximately 0.1 mg ml^−1 concentration and measured in a 0.1 cm pathlength quartz cuvette. First, ECD spectra of samples were recorded at 25°C with a scan speed of […]. […] The system was allowed to equilibrate for 1 min before measurements were taken at each temperature point.
The obtained melting curves were fitted with an inverse sigmoidal function of which inflection point designated the melting temperature (Tm) of the native protein structure.
ECD spectra were also recorded at 95°C, the final temperature of the thermal unfolding experiments, then samples were allowed to cool and measured again after 5 min of equilibration at 25°C. The reported spectra are accumulations of 10 scans, from which the similarly recorded, corresponding solvent spectrum was subtracted. Data are given as molar ellipticities. Accurate protein sample concentrations for the corrections of ECD spectra were determined using analytical RP-HPLC.

[21] abbreviates: RPMI 1640 pH 7.0, 10^3 cells ml^−1, 48 h, 35°C, MIC = growth ≤ 5%.

Read-outs that look alike come from different tables or passages of the source. Marks after values point to notes of the source that are not given here. Ends that are not written are not given here. Where only a bound is given, the exact number is not on record here.

Results on two compounds are retold here after paper PMC5845869 (Frontiers in Microbiology, 2018).

Turning to `OC(Cn1cncn1)(Cn1cncn1)c1ccc(F)cc1F` [FLC, fluconazole, reference compound], the MIC (commonly the lowest concentration found to suppress growth) in data set [1] (Candida albicans, ATCC10231, 48 h, pH 7, read-out: MIC of the drug alone (a)) was 1 µg/mL; with Candida krusei CBS 573 [2] it was 64 µg/mL; in [3] (Lodderomyces parapsilosis, CBS604, 48 h, pH 7, read-out: MIC of the drug alone (a)), 8 µg/mL. Moreover, the “MIC of the drug in combination (c)” value in [4] is 0.25 µg/mL; in [5], 1 µg/mL.

Turning to “IATSPYYACNCPNNCKHKKGSGCKYHSGPSDKSKVISGKCEWQGGQLNCIAT (disulfide (positions not given here)) [rNFAP2, recombinant NFAP2 produced by P. chrysogenum nfap2]”, the MIC with Candida glabrata CBS 138 [6] amounted to 1.56 µg/mL; in [7], 1.56 µg/mL; in data set [8] it was 3.125 µg/mL; in [9], 1.56 µg/mL; in data set [10], 1.56 µg/mL; in data set [11], 6.25 µg/mL. The MIC turned out to be 12.5 µg/mL with Candida krusei CBS 573 [12], 1.56 µg/mL in [13] and 3.125 µg/mL in data set [14]. The “MIC of the drug alone (a)” value in [1] (setting [21]) is 200^* μg ml^−1; with Candida glabrata CBS 138 [15] it was 12.5 µg/mL; in [16], 3.125 µg/mL; in [17], more than 100 µg/mL; in data set [3] (setting [21]) it was 100 µg/mL; in data set [18], more than 100 µg/mL. Besides, the “MIC of the drug in combination (c)” value (in [4]; in the data set on Candida krusei CBS 573 [19]; in data set [5]) was 6.25 µg/mL in each case. Further, the thermal denaturation reversibility result in data set [20] (ECD at 95°C, then re-measured after cooling, 5 min at 25°C) is “reversible”. Moreover, the “Tm (melting temperature of the native protein structure)” value in data set [20] (ECD at 228 nm, 25 to 95°C at 1°C min^−1, approx. 0.1 mg ml^−1 in H2O, inflection of sigmoidal fit) came out at 75.79 °C. Besides, in data set [20] (thermal unfolding followed by ECD), the “native fold remains intact up to” value is “approximately 70 °C”.
